Publication PMC6437697 (Journal of Medicinal Chemistry, 2019)

Columns and labels:
Assay in all cases: KINOMEscan
Type in all cases: binding
Details in all cases: read-out: % control activity remaining
[1] = molecular target: T1, ABL1(T315I)-phosphorylated (Homo sapiens, UniProt P00519, T315I)
T1 construct: purchased Eurofins DiscoverX KINOMEscan

CAMKK1 = molecular target: T2, CAMKK1 (Homo sapiens, UniProt Q8N5S9)
T2 construct: purchased Eurofins DiscoverX KINOMEscan

FLT3(D835Y) = molecular target: T3, FLT3(D835Y) (Homo sapiens, UniProt P36888, D835Y)
T3 construct: purchased Eurofins DiscoverX KINOMEscan
T3 sequence (P36888 27-993 D835Y): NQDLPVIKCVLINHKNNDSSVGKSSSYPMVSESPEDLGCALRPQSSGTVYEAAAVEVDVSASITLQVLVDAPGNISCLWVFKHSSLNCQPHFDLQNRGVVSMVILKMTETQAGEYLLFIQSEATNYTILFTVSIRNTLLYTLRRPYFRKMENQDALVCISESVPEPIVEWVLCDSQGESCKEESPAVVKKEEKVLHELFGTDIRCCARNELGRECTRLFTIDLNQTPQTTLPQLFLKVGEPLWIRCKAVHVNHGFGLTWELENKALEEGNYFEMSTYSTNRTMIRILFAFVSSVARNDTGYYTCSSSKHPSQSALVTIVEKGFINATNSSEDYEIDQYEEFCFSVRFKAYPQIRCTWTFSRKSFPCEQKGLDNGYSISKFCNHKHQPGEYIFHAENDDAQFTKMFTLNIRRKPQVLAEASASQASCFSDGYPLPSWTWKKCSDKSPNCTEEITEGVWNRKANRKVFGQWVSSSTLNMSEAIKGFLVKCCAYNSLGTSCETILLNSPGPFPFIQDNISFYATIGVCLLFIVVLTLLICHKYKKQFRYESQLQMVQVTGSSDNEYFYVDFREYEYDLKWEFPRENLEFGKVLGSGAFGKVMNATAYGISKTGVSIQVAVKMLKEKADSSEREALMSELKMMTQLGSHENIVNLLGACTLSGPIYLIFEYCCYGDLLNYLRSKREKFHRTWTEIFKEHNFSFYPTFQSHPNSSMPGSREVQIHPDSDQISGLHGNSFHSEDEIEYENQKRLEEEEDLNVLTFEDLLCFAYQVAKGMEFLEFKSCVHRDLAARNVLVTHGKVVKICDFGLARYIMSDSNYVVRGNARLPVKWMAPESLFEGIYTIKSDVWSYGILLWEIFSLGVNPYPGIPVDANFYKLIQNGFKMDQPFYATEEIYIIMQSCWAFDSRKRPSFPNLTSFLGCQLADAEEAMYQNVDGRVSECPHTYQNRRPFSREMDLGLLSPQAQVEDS

GRK4 = molecular target: T4, GRK4 (Homo sapiens, UniProt P32298)
T4 construct: purchased Eurofins DiscoverX KINOMEscan
T4 sequence (P32298 whole entry): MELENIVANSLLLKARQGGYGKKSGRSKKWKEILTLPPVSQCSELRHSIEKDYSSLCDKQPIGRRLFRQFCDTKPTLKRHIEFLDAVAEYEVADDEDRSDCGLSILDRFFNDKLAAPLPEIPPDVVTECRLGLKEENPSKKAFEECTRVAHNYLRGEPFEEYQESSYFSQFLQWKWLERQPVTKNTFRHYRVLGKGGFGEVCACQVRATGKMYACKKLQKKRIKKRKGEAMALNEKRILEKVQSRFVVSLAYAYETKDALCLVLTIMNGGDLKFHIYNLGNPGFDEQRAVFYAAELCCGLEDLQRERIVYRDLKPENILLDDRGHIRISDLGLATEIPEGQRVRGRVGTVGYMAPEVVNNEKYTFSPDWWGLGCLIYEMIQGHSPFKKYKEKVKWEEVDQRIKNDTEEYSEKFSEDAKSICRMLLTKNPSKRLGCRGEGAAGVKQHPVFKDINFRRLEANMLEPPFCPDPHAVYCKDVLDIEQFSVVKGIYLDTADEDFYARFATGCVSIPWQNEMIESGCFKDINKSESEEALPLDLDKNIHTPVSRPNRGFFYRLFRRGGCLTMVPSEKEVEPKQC

MUSK = molecular target: T5, MUSK (Homo sapiens, UniProt O15146)
T5 construct: purchased Eurofins DiscoverX KINOMEscan
T5 sequence (O15146 24-869): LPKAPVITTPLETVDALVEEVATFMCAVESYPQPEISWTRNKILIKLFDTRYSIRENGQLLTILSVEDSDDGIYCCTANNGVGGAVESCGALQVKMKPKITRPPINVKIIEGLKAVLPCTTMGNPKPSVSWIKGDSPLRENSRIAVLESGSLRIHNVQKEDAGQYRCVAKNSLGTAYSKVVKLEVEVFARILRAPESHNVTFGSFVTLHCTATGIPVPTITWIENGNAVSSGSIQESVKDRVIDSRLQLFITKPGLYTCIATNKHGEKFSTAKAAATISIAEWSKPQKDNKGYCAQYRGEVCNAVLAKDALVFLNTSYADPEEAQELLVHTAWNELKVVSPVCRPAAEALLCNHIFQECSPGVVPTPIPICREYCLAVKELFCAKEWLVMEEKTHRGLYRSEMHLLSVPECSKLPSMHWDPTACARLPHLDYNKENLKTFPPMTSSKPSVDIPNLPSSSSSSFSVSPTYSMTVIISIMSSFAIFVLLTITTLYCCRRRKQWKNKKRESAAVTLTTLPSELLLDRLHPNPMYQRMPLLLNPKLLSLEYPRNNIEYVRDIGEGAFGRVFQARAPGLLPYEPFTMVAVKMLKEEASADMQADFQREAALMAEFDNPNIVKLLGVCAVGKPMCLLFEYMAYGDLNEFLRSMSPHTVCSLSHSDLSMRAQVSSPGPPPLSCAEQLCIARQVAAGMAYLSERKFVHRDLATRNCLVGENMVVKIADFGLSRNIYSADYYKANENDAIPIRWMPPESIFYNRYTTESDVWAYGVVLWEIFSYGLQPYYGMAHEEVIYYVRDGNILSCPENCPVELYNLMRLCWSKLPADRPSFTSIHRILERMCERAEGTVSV

NDR1 = molecular target: T6, NDR1 (Homo sapiens, UniProt Q15208)
T6 construct: purchased Eurofins DiscoverX KINOMEscan
T6 sequence (Q15208 whole entry): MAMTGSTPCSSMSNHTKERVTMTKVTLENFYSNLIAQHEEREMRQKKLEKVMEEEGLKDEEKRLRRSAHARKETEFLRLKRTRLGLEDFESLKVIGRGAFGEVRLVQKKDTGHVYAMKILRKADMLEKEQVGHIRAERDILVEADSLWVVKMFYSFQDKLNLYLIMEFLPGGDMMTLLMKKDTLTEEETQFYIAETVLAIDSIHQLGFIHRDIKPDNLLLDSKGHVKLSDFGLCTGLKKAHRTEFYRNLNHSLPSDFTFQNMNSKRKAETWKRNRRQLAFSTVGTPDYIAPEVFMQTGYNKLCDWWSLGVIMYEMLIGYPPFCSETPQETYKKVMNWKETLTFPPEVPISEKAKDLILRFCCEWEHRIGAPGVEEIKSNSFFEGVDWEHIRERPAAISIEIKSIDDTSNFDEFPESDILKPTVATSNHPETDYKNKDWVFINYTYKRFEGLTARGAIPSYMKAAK

PAK2 = molecular target: T7, PAK2 (Homo sapiens, UniProt Q13177)
T7 construct: purchased Eurofins DiscoverX KINOMEscan
T7 sequence (Q13177 whole entry): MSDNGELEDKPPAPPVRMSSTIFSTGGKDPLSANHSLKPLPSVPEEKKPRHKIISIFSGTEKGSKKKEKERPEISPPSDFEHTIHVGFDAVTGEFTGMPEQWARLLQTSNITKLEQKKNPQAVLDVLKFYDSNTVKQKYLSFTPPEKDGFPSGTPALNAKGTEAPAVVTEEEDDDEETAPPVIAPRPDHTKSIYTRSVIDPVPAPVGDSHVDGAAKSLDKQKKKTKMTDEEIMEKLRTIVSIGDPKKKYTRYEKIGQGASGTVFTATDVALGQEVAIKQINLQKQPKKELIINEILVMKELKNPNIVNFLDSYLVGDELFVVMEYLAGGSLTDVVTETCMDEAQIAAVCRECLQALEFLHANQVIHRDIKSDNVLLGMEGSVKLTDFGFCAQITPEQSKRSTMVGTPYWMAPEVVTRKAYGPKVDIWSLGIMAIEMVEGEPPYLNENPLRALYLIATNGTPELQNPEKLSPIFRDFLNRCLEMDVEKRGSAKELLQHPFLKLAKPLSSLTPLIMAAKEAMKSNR

PIM2 = molecular target: T8, PIM2 (Homo sapiens, UniProt Q9P1W9)
T8 construct: purchased Eurofins DiscoverX KINOMEscan
T8 sequence (Q9P1W9 whole entry): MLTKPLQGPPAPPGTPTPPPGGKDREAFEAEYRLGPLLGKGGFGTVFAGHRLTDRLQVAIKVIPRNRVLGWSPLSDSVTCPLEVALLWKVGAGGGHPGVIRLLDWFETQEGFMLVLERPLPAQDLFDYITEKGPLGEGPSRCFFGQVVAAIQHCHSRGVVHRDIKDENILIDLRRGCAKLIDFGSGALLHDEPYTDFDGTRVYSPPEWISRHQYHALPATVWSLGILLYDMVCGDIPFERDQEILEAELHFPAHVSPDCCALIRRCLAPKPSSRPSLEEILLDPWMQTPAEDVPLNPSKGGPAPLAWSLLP

TGFBR1 = molecular target: T9, TGFBR1 (Homo sapiens, UniProt P36897)
T9 construct: purchased Eurofins DiscoverX KINOMEscan
T9 sequence (P36897 34-503): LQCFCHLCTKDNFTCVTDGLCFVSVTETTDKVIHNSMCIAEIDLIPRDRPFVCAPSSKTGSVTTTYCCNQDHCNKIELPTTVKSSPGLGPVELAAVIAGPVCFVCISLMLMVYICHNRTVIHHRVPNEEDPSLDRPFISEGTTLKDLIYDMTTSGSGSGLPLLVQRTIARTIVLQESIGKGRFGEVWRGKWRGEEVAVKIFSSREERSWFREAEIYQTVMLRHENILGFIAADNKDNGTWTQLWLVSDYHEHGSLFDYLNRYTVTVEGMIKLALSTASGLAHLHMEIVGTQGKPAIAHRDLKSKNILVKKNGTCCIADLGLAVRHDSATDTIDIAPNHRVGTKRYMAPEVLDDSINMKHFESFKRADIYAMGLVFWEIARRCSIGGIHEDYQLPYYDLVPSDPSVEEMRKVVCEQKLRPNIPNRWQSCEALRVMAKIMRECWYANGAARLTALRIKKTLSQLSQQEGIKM

TGFBR2 = molecular target: T10, TGFBR2 (Homo sapiens, UniProt P37173)
T10 construct: purchased Eurofins DiscoverX KINOMEscan
T10 sequence (P37173 23-567): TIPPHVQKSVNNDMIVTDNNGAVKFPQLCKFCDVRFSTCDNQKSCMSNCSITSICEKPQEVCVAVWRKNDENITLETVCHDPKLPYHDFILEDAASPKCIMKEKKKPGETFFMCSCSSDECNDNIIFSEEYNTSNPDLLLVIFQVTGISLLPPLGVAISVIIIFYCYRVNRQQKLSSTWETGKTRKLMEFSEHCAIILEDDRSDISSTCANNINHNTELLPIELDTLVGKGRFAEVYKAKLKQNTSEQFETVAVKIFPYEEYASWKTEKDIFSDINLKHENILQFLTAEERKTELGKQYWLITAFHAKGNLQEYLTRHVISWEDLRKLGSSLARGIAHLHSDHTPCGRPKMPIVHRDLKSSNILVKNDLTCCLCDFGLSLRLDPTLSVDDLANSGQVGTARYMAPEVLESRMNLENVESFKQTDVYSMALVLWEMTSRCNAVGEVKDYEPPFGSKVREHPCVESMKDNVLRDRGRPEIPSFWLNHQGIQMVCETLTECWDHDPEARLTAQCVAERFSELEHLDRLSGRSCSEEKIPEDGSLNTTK

T2 sequence (Q8N5S9 whole entry): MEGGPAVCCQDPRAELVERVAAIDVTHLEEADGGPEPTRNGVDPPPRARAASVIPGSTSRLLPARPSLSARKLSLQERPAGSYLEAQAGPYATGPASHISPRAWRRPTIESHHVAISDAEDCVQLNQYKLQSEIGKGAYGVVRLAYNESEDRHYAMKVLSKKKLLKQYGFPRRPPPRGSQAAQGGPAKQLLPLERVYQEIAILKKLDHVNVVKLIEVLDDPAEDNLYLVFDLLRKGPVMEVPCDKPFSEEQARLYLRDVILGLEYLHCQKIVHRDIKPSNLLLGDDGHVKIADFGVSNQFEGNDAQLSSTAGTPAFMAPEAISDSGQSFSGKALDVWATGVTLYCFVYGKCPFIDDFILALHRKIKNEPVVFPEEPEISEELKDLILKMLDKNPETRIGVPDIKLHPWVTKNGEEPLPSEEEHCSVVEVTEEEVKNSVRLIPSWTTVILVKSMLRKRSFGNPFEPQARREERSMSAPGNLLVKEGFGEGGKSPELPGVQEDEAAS

SMILES | remaining binding at 1 µM [1] [%] | remaining binding at 1 µM (CAMKK1) [%] | remaining binding at 1 µM (FLT3(D835Y)) [%] | remaining binding at 1 µM (GRK4) [%] | remaining binding at 1 µM (MUSK) [%] | remaining binding at 1 µM (NDR1) [%] | remaining binding at 1 µM (PAK2) [%] | remaining binding at 1 µM (PIM2) [%] | remaining binding at 1 µM (TGFBR1) [%] | remaining binding at 1 µM (TGFBR2) [%]
Clc1cc(NCC2CC2)c2ncc(-c3ccc4[nH]ncc4c3)n2n1 [compound 2, 6-Chloro-N-(cyclopropylmethyl)-3-(1H-indazol-5-yl)imidazo[1,2-b]pyridazin-8-amine] | 94 | 94 | 10 | 42 | 72 | 75 | 71 | 100 | 100 | 100
O=C(CN1CCOCC1)N[C@H]1CC[C@H](Nc2cc(Cl)nn3c(-c4ccc5[nH]ncc5c4)cnc23)CC1 [compound 26] | 50 | 52 | 17 | 79 | 42 | 96 | 76 | 100 | 100 | 100
CN1CCC(CNc2cc(Cl)nn3c(-c4cc5nc(Nc6ccccc6)[nH]c5cc4F)cnc23)CC1 [compound 31, 6-Chloro-3-(6-fluoro-2-(phenylamino)-1H-benzo[d]imidazol-5-yl)-N-((1-methylpiperidin-4-yl)methyl)imidazo[1,2-b]pyridazin-8-amine] | 87 | 98 | 100 | 100 | 40 | 86 | 91 | 100 | 92 | 100
